Laboratory results from ChEMBL document CHEMBL5150040, “Bis-aryl-α,β-unsaturated ketone (ABK) chaperonin inhibitors exhibit selective cytotoxicity to colorectal cancer cells that correlates with levels of aberrant HSP60 in the cytosol” (Bioorg Med Chem, 2022).
Active and inactive are the calls of the source. No cut-off for these calls is given here.

Experiments:
[1] = Selectivity index, ratio of CC50 for cytotoxicity against non-cancerous cells to EC50 for cytotoxicity against human HCT-116 cells; assay type: toxicity, cell-based; conditions: non-cancerous cells versus HCT-116 cells, read-out: Ratio CC50/EC50
HT-29 = assay: Cytotoxicity against human HT-29 cells assessed as reduction in cell viability incubated for 48 hrs by AlamarBlue-based assay; assay type: functional; conditions: HT-29, 48 h
DLD-1 = assay: Cytotoxicity against human DLD-1 cells assessed as reduction in cell viability incubated for 48 hrs by AlamarBlue-based assay; assay type: functional; conditions: DLD-1, 48 h
[2] = Inhibition of Escherichia coli GroEL expressed in NEB-5-alpha Escherichia coli cells/Escherichia coli GroES expressed in Escherichia coli BL21(DE3) cells assessed as inhibition of GroEL/ES-mediated dRho refolding by reporter analysis
[3] = Cytotoxicity against human FHs74Int cells assessed as reduction in cell viability incubated for 48 hrs by AlamarBlue-based assay; assay type: toxicity
[4] = Cytotoxicity against human FHC cells assessed as reduction in cell viability incubated for 48 hrs by AlamarBlue-based assay; assay type: toxicity
[5] = Inhibition of Escherichia coli GroEL expressed in NEB-5-alpha Escherichia coli cells/Escherichia coli GroES expressed in Escherichia coli BL21(DE3) cells assessed as inhibition of GroEL/ES-mediated dMDH refolding by reporter analysis
[6] = Inhibition of human mitochondrial HSP60 expressed in Escherichia coli Rosetta 2 (DE3) cells/human mitochondrial HSP10 expressed in Escherichia coli Rosetta 2 (DE3) pLysS cells assessed as inhibition of […]-mediated dMDH refolding by reporter analysis; assay type: mitochondria, Mitochondria
[7] = Inhibition of refolded rhodanese reporter enzyme (unknown origin); set-up: species or system Homo sapiens
[8] = Inhibition of refolded MDH reporter enzyme (unknown origin); set-up: species or system Homo sapiens
HCT-116 [9] = assay: Cytotoxicity against human HCT-116 cells assessed as reduction in cell viability incubated for 48 hrs by AlamarBlue-based assay; assay type: functional; conditions: HCT-116, 48 h
HCT-116 [10] = assay: Cytotoxicity against p53-/- human HCT-116 cells assessed as reduction in cell viability incubated for 48 hrs by AlamarBlue-based assay; assay type: functional; conditions: HCT-116, 48 h
HCT-116 [11] = assay: Inhibition of clonogenicity in human HCT-116 cells at > 1 uM incubated for 72 hrs followed by incubation in fresh medium for 7 days by crystal violet staining based analysis; assay type: functional, cell-based
HCT-116 [12] = assay: Inhibition of cell migration in human HCT-116 cells measured after 26 hrs by scratch wound healing assay; assay type: functional, cell-based; conditions: HCT-116, 26 h
HCT-116 [13] = assay: Cytotoxicity against human HCT-116 cells assessed as reduction in cell viability at 0.01 to 100 uM by Trypan Blue staining based analysis; assay type: functional; conditions: dose 0.01-100 µM, time 24-48 hrs, TDE = time-dependent effect
HCT-116 [14] = assay: Cytotoxicity against human HCT-116 cells assessed as reduction in cell viability incubated for 48 hrs by AlamarBlue-based assay relative to control; assay type: functional
HCT-116 [15] = assay: Induction of apoptosis in human HCT-116 cells at 0.1 to 100 uM incubated for 48 hrs by AnnexinV-FITC/PI staining based flow cytometry; assay type: functional, cell-based; conditions: dose 0.1-100 µM
HCT-116 [16] = assay: Induction of necrotic cell death in human HCT-116 cells at 0.1 to 100 uM incubated for 48 hrs by AnnexinV-FITC/PI staining based flow cytometry; assay type: functional; conditions: dose 0.1-100 µM
HCT-116 [17] = assay: Cytotoxicity against human HCT-116 cells assessed as reduction in cell viability incubated for 72 hrs by AlamarBlue-based assay relative to control; assay type: functional
Escherichia coli = assay: Inhibition of Escherichia coli GroEL expressed in NEB-5-alpha Escherichia coli cells/Escherichia coli GroES expressed in Escherichia coli BL21(DE3) cells assessed as inhibition of GroEL/ES-mediated dMDH refolding measured after 24 hrs dialysis period by reporter analysis

Structure (SMILES)	IC50 [2] [µM]	IC50 [5] [µM]	IC50 [6] [µM]	IC50 [7] [µM]	IC50 [8] [µM]	EC50 (HCT-116 [12]) [µM]	selectivity ratio [1]	EC50 (HT-29) [µM]	EC50 (DLD-1) [µM]	CC50 at 48 h [3] [µM]	CC50 at 48 h [4] [µM]	EC50 (HCT-116 [9]) [µM]	EC50 (HCT-116 [10]) [µM]	inhibition (HCT-116 [11])	Activity (HCT-116 [13])	Activity (HCT-116 [14]) [%]	Activity (HCT-116 [15])	Activity (HCT-116 [16])	Activity (HCT-116 [17]) [%]	inhibition (Escherichia coli)
CC(=O)Nc1ccc(C(=O)/C=C/c2cccc([N+](=O)[O-])c2)cc1	7	2.1	7.7	> 100	> 63	–	7.9	2	6.3	12	15	1.7	1.8	–	–	–	–	–	–	–
COc1ccc(C(=O)/C=C/c2ccccc2)cc1 [4'-METHOXYCHALCONE]	34	13	16	> 100	> 63	–	3.2	23	35	37	62	16	17	–	–	–	–	–	–	–
COc1ccc(/C=C/C(=O)c2ccccc2)cc1 [4-METHOXY CHALCONE]	46	27	22	> 100	> 63	–	4.4	32	52	91	99	22	30	–	–	–	–	–	–	–
CC(=O)Nc1ccc(C(=O)/C=C/c2ccccc2)cc1	40	9.4	14	> 100	> 63	–	6.7	13	28	58	86	11	11	–	–	–	–	–	–	–
OC(/C=C/c1ccccc1)c1ccccc1 (stereo unspecified)	> 250	> 100	> 100	> 100	> 63	–	–	> 100	> 100	> 100	> 100	> 100	> 100	–	–	–	–	–	–	–
O=C(/C=C/c1ccco1)c1ccc(NC(=O)c2cccs2)cc1	9.7	6.7	12	> 100	> 63	–	2.4	50	56	68	93	33	45	–	–	–	–	–	–	–
O=C(/C=C/c1ccccc1)c1ccc(NC(=O)c2ccccc2)cc1	27	4.3	5.9	> 100	> 63	–	3.9	36	46	60	73	17	28	–	–	–	–	–	–	–
O=C(/C=C/c1ccc([N+](=O)[O-])cc1)c1ccc(O)c(O)c1	1.3	2	6.2	45	> 63	–	3.4	8.2	9.6	11	28	5.8	6.1	–	–	–	–	–	–	–
O=C(/C=C/c1cccc([N+](=O)[O-])c1)c1ccc(NC(=O)c2cccs2)cc1	1.5	0.41	2.2	> 100	> 63	13	19	2.5	11	24	73	2.6	2.5	Active	Tde	100	Active	Active	–	–
O=C(/C=C/c1ccco1)c1ccc(NC(=O)c2ccccc2)cc1	37	21	20	> 100	> 63	–	2.4	76	69	> 100	> 100	42	59	–	–	–	–	–	–	–
O=C(/C=C/c1cccc([N+](=O)[O-])c1)c1ccc(NC(=O)c2ccco2)cc1	2.2	0.73	2.5	> 100	> 63	–	23	3.5	22	54	> 100	3.4	4.1	Active	Tde	–	Active	Active	100	Active

Second part, led by results:

IC50 [2] [µM]	IC50 [5] [µM]	IC50 [6] [µM]	IC50 [7] [µM]	IC50 [8] [µM]	EC50 (HCT-116 [12]) [µM]	Structure (SMILES)	selectivity ratio [1]	EC50 (HT-29) [µM]	EC50 (DLD-1) [µM]	CC50 at 48 h [3] [µM]	CC50 at 48 h [4] [µM]	EC50 (HCT-116 [9]) [µM]	EC50 (HCT-116 [10]) [µM]	inhibition (HCT-116 [11])	Activity (HCT-116 [13])	Activity (HCT-116 [14]) [%]	Activity (HCT-116 [15])	Activity (HCT-116 [16])	Activity (HCT-116 [17]) [%]	inhibition (Escherichia coli)
61	20	21	> 100	> 63	–	O=C(/C=C/c1ccccc1)c1ccc(O)cc1 [4'-HYDROXYCHALCONE]	3.7	30	34	65	82	20	21	–	–	–	–	–	–	–
67	41	44	> 100	> 63	–	CC(=O)Nc1ccc(C(=O)/C=C/c2ccco2)cc1	1.8	88	84	99	> 100	56	72	–	–	–	–	–	–	–
27	7.1	8.6	> 100	> 63	–	O=C(/C=C/c1ccccc1)c1ccccc1 [CHALCONE]	6.2	14	25	46	71	9.5	11	–	–	–	–	–	–	–
135	57	43	> 100	> 63	–	Nc1ccc(C(=O)/C=C/c2ccccc2)cc1	3.7	35	33	97	> 100	27	23	–	–	–	–	–	–	–
> 250	> 100	> 100	> 100	> 63	–	O=C(CCc1ccccc1)c1ccccc1	–	> 100	> 100	> 100	> 100	> 100	> 100	–	–	–	–	–	–	–
> 250	> 100	> 100	> 100	> 63	–	O=C(NCc1ccccc1)c1ccccc1	–	> 100	> 100	> 100	> 100	> 100	> 100	–	–	–	–	–	–	–
20	3.8	4.7	> 100	> 63	–	O=C(/C=C/c1ccccc1)c1ccc(NC(=O)c2cccs2)cc1	4.9	28	35	40	83	12	16	–	–	–	–	–	–	–
39	20	21	> 100	> 63	–	O=C(/C=C/c1ccc(O)cc1)c1ccccc1 [4-HYDROXYCHALCONE]	3.1	39	51	97	> 100	32	32	–	–	–	–	–	–	–
12	5.9	9.8	55	46	–	Nc1ccc(C(=O)/C=C/c2ccco2)cc1	4.2	28	31	86	90	21	24	–	–	–	–	–	–	–
3.1	0.71	2.3	> 100	> 63	–	O=C(/C=C/c1cccc([N+](=O)[O-])c1)c1ccc(NC(=O)c2ccccc2)cc1	24	3.9	> 100	> 100	> 100	4.1	25	–	–	–	–	–	–	–
